pIC50: −log10 of the molar value. Calls of active or inactive are those of the source. No cut-off for these calls is given here.

Experiment [1] addresses Integrin alpha-4 (Homo sapiens) (UniProt P13612). As to the kind of experiment: Inhibition of alpha4 integrin-dependent cell migration in CHO cells expressing alpha4 integrin after 12 hrs by wound healing assay. The class given is cell-based.
For the next experiment, the system named is Jurkat. Kind of experiment: Inhibition of human Jurkat T cell motility after 4.5 hrs by modified Boyden chamber assay. The class given is functional, cell-based.
Experiment [2] deals with T1, Gamma-parvin (Homo sapiens) (UniProt Q9HBI0).
T1 sequence (whole entry): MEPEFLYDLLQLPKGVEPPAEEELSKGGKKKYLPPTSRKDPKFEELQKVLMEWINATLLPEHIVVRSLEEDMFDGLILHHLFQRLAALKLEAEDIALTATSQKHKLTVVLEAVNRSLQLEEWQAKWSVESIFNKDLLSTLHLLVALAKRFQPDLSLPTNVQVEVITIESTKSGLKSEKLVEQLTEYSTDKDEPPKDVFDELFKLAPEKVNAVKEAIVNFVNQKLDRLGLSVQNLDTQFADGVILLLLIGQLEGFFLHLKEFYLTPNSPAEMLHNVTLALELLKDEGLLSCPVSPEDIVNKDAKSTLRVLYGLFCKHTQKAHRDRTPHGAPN
Kind of experiment: Binding affinity to gamma-parvin in human Jurkat cells at 100 uM by Western blot analysis. The class given is cell-based.

Experiment [3] addresses Adenosine kinase (Homo sapiens) (UniProt P55263). As to the kind of experiment: Binding affinity to ADK in human Jurkat cells at 100 uM by Western blot analysis. The class given is cell-based. A general note: Immunoblotting shows a protein as a band on a membrane.
The target in experiment [4] is Integrin alpha-4 (Homo sapiens) (UniProt P13612). Kind of experiment: Inhibition of alpha4 integrin-dependent cell migration in PMA-stimulated human Jurkat cells at 1 or 5 uM after 4.5 hrs. It counts as cell-based. Set-up: scale not given: the % may be the effect or the level left.
Experiment [5] has the same target. As to the kind of experiment: Inhibition of alpha4 integrin-dependent cell migration in SDF1-alpha-stimulated human Jurkat cells at 1 or 5 uM after 4.5 hrs. The class given is cell-based. Also noted: scale not given: the % may be the effect or the level left.
The target is the same in experiment [6]. Kind of experiment: Inhibition of alpha4 integrin-dependent cell migration in PMA-stimulated human U937 cells at 1 or 5 uM after 4.5 hrs. It counts as cell-based. Also noted: scale not given: the % may be the effect or the level left. As to conditions: U-937.
For experiment [7] the target is unchanged. Kind of experiment: Inhibition of alpha4 integrin-dependent cell migration in SDF1-alpha-stimulated human U937 cells at 1 or 5 uM after 4.5 hrs. The class given is cell-based. Set-up: scale not given: the % may be the effect or the level left. As to conditions: U-937.

Sequence of Integrin alpha-4 (Homo sapiens) (P13612 whole entry): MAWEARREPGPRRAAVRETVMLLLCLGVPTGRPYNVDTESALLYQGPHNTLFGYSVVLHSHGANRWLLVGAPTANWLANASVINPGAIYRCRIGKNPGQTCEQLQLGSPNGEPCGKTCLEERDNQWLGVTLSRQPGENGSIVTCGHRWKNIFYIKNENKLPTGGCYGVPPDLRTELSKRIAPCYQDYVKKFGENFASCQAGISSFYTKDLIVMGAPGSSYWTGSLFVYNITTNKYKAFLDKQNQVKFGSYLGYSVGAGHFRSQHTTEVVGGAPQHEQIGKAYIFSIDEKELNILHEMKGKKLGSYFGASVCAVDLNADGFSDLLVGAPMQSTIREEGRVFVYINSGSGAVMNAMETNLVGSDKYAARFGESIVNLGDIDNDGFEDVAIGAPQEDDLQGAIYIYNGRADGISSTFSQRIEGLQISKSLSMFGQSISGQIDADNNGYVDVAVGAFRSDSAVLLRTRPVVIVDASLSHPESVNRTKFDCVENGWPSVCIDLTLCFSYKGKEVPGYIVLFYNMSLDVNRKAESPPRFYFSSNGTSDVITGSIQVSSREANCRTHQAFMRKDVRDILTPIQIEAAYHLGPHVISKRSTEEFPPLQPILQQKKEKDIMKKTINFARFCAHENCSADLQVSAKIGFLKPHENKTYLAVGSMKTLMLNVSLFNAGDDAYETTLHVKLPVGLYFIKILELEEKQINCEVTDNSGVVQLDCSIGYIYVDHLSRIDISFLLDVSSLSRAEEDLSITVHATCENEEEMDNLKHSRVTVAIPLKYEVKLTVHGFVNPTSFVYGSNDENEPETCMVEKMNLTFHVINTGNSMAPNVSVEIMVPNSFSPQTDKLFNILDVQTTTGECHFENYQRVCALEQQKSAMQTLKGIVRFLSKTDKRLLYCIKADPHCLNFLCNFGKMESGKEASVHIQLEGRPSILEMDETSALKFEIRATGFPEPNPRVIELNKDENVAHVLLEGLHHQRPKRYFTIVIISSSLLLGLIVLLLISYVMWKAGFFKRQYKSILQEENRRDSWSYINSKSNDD
Sequence of Adenosine kinase (Homo sapiens) (P55263 2-362 limits assumed): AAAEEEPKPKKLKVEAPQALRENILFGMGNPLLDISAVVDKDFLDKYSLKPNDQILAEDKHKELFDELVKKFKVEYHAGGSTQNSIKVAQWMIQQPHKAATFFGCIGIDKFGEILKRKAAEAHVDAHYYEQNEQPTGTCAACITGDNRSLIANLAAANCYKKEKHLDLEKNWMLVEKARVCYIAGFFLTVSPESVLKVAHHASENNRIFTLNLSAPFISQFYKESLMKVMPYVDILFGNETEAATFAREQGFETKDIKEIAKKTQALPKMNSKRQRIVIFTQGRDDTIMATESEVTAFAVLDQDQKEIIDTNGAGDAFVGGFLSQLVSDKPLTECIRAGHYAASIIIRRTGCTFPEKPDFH

`Nc1ccc(-c2cc3c(Nc4cccc(Cl)c4)ncnc3[nH]2)cc1`: the Activity result was “Dose-dependent effect” in experiment [1]; 40% in experiment [4]; 40% in experiment [5]; 40% in experiment [6]; 40% in experiment [7]. For the same compound, the pIC50 (in general, the negative decadic logarithm of the IC50, by convention in mol/L) in the experiment on Jurkat was 6.30. In addition, the outcome in experiment [2] and in experiment [3] was Active.

These data come from ChEMBL document CHEMBL1140984, “A small molecule inhibitor of alpha4 integrin-dependent cell migration” (Bioorg Med Chem, 2009).
